This is an account of results in patent US12649750B2, “Macrocyclic compounds, compositions, and methods of using thereof” (Sionna Therapeutics Inc., priority 2022, dated 2026).

One assay has as its target T1, NBD1 (Homo sapiens, UniProt P13569).
T1 construct: Purified recombinant NBD1 was produced using previously described methods; made in house
The assay can be described thus: Aggregation analysis using differential static light scattering (DSLS), thermal stability of NBD1 (ΔTagg). It counts as binding. Conditions: ΔTagg versus DMSO control, NBD1 0.2 mg/ml. The method in brief: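 Purified recombinant NBD1 at 0.2 mg/ml in Tris buffer pH7.6 with 2 mM ATP, 5 mM MgCl2, 2 mM DTT and 1% glycerol was mixed with DMSO-dissolved compounds under mineral oil. Plates were heated at 1° C. per minute to 70° C., light scattering imaged every 0.5° C.; Tagg from curve inflection, minus DMSO-control mean.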

The target in another assay is T2, CFTR (Homo sapiens, UniProt P13569, DEL508-508).
T2 construct: Primary human bronchial epithelial cells from a ΔF508 homozygous CF donor; host or cells: primary human bronchial epithelial cells (CF-HBE), ΔF508 homozygous donor
The assay can be described thus: TECC24 AUC fold over DMSO @10 μM, CFTR-mediated transepithelial chloride transport in CF-HBE cells. Conditions: test agent AUC divided by DMSO vehicle AUC, primary CF-HBE cells, ΔF508 homozygous donor, 48 hours incubation. The format is cell-based. The method in brief:
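Primary ΔF508-homozygous CF bronchial epithelial cells on inserts were incubated 48 h at 36.5 °C with compound in IL-13-containing medium. VT and TEER were then recorded in current-clamp mode (pH 7.4 HEPES bath) with benzamil 10 μM, forskolin 10 μM, then CFTR inhibitor-172 20 μM. The IEQ AUC between forskolin and inhibitor was divided by vehicle AUC.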

T2 sequence (P13569 with tags, fused parts or gaps DEL508-508): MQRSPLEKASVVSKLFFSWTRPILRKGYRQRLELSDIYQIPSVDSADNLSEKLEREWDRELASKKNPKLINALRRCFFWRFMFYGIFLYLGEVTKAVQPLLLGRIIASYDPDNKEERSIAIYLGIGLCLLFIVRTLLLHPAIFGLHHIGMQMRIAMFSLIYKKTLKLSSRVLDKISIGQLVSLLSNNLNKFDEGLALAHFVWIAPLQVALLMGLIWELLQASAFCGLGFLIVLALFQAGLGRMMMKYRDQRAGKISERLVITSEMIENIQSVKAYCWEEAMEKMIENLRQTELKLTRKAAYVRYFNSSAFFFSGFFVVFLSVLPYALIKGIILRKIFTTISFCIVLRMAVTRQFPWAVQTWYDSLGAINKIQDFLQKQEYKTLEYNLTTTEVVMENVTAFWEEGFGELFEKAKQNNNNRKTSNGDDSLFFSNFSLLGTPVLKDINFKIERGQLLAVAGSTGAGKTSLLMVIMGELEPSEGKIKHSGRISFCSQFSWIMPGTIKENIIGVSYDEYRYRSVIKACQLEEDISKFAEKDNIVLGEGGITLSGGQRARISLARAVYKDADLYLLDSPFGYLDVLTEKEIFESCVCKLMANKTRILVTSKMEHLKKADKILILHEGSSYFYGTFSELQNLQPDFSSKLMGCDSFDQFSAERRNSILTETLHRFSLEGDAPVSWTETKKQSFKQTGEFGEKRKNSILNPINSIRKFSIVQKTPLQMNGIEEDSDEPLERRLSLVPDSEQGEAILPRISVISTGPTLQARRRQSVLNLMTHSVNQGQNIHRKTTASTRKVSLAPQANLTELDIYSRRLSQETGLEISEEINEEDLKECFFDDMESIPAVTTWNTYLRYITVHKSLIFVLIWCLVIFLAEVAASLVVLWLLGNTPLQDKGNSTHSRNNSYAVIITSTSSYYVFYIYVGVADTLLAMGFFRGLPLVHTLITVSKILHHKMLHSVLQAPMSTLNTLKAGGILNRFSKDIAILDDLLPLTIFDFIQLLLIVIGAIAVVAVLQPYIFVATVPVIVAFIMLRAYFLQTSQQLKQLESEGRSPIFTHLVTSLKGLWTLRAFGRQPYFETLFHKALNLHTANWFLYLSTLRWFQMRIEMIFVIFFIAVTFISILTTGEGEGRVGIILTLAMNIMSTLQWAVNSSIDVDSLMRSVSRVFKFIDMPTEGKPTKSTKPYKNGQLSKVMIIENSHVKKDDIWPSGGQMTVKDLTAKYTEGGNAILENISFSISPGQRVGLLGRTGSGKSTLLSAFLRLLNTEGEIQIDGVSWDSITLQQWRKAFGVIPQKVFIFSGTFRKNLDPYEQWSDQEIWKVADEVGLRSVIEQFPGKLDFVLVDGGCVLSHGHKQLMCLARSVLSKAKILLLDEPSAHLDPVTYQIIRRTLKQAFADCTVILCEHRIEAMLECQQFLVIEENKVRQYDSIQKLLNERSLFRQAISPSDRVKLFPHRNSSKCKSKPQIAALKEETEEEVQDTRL
T1 sequence (P13569 423-646 limits assumed): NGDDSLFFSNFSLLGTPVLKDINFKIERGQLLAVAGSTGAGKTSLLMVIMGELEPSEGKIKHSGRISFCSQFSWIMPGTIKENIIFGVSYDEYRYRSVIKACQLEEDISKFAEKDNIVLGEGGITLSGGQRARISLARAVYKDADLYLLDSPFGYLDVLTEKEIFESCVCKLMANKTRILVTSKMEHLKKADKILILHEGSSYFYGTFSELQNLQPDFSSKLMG

For the molecule `Cn1nc2nc1-c1cc(ccc1F)Oc1c(F)cc3[nH]ccc3c1CCS(=O)(=O)CC(C)(C)CCCC2(C)c1cccc(CC(C)(C)C(=O)O)c1` (single isomer, unassigned) [Compound 29B, 3-[3-(22,28-Difluoro-3,6,10,10-tetramethyl-12,12-dioxo-24-oxa-12lambda6-thia-3,4,19,30-tetrazapentacyclo[23.3.1.12,5.015,23.016,20]triaconta-1(29),2(30),4,15,17,20,22,25,27-nonaen-6-yl)phenyl]-2,2-dimethyl-propanoic acid], the “DSLS 3D (100 μM ΔT)” value on NBD1 was “A (an ΔTagg value less than or equal to 5 °C is marked “A”)”. Moreover, the “TECC (AUC, 10 μM)” value on CFTR is reported as “A (a TECC value less than 12 is marked “A”)”.
Turning to `Cn1nc2nc1-c1cc(ccc1F)C(O)c1c(F)cc3[nH]ccc3c1CCS(=O)(=O)CC(C)(C)CCCC2(C)c1cccc(CCC(=O)O)c1` (single isomer, unassigned) [Compound 30A, 3-[3-(22,28-difluoro-24-hydroxy-3,6,10,10-tetramethyl-12,12-dioxo-12lambda6-thia-3,4,19,30-tetrazapentacyclo[23.3.1.12,5.015,23.016,20]triaconta-1(29),2(30),4,15,17,20,22,25,27-nonaen-6-yl)phenyl]propanoic acid], the “DSLS 3D (100 μM ΔT)” value on NBD1 is “C (a value greater than 10 °C and less than or equal to 25 °C is marked “C”)”. In addition, the “TECC (AUC, 10 μM)” value on CFTR was “C (a value between 20 and 80 is marked “C”)”.
With `Cn1nc2nc1-c1cc(ccc1F)C(O)c1c(F)cc3[nH]ccc3c1CCS(=O)(=O)CC(C)(C)CCCC2(C)c1cccc(CCC(=O)O)c1` (single isomer, unassigned) [Compound 30B, 3-[3-(22,28-difluoro-24-hydroxy-3,6,10,10-tetramethyl-12,12-dioxo-12lambda6-thia-3,4,19,30-tetrazapentacyclo[23.3.1.12,5.015,23.016,20]triaconta-1(29),2(30),4,15,17,20,22,25,27-nonaen-6-yl)phenyl]propanoic acid], the “DSLS 3D (100 μM ΔT)” value at NBD1 was “B (a value above 5 °C and less than or equal to 10 °C is marked “B”)”. Also, at CFTR, the “TECC (AUC, 10 μM)” value was “B (a value between 12-20 is marked “B”)”.
`Cn1nc2nc1-c1cc(ccc1F)C(O)c1c(F)cc3[nH]ccc3c1CCS(=O)(=O)CC(C)(C)CCCC2(C)c1cccc(CCC(=O)O)c1` (single isomer, unassigned) [Compound 30C, 3-[3-(22,28-difluoro-24-hydroxy-3,6,10,10-tetramethyl-12,12-dioxo-12lambda6-thia-3,4,19,30-tetrazapentacyclo[23.3.1.12,5.015,23.016,20]triaconta-1(29),2(30),4,15,17,20,22,25,27-nonaen-6-yl)phenyl]propanoic acid]: the “DSLS 3D (100 μM ΔT)” value at NBD1 is “B (a value above 5 °C and less than or equal to 10 °C is marked “B”)”. The “TECC (AUC, 10 μM)” value at CFTR was “C (a value between 20 and 80 is marked “C”)”.
With `Cn1nc2nc1-c1cc(ccc1F)C(O)c1c(F)cc3[nH]ccc3c1CCS(=O)(=O)CC(C)(C)CCCC2(C)c1cccc(CCC(=O)O)c1` (single isomer, unassigned) [Compound 30D, 3-[3-(22,28-difluoro-24-hydroxy-3,6,10,10-tetramethyl-12,12-dioxo-12lambda6-thia-3,4,19,30-tetrazapentacyclo[23.3.1.12,5.015,23.016,20]triaconta-1(29),2(30),4,15,17,20,22,25,27-nonaen-6-yl)phenyl]propanoic acid], the “DSLS 3D (100 μM ΔT)” value on NBD1 was “C (a value greater than 10 °C and less than or equal to 25 °C is marked “C”)”. Besides, the “TECC (AUC, 10 μM)” value on CFTR was “A (a TECC value less than 12 is marked “A”)”.
`COC(=O)CCc1cccc(C2(C)CCCC(C)(C)CS(=O)(=O)CCc3c(c(F)cc4[nH]ccc34)C(=O)c3ccc(F)c(c3)-c3nc2nn3C)c1` (single isomer, unassigned) [Compound 31A, methyl 3-[3-[22,28-difluoro-3,6,10,10-tetramethyl-12,12,24-trioxo-12lambda6-thia-3,4,19,30-tetrazapentacyclo[23.3.1.12,5.015,23.016,20]triaconta-1(29),2(30),4,15,17,20,22,25,27-nonaen-6-yl]phenyl]propanoate]: the “DSLS 3D (100 μM ΔT)” value on NBD1 was “B (a value above 5 °C and less than or equal to 10 °C is marked “B”)”. In addition, the “TECC (AUC, 10 μM)” value on CFTR is “C (a value between 20 and 80 is marked “C”)”.
Consider `COC(=O)CCc1cccc(C2(C)CCCC(C)(C)CS(=O)(=O)CCc3c(c(F)cc4[nH]ccc34)C(=O)c3ccc(F)c(c3)-c3nc2nn3C)c1` (single isomer, unassigned) [Compound 31B, methyl 3-[3-[22,28-difluoro-3,6,10,10-tetramethyl-12,12,24-trioxo-12lambda6-thia-3,4,19,30-tetrazapentacyclo[23.3.1.12,5.015,23.016,20]triaconta-1(29),2(30),4,15,17,20,22,25,27-nonaen-6-yl]phenyl]propanoate], for which the “DSLS 3D (100 μM ΔT)” value on NBD1 was “A (an ΔTagg value less than or equal to 5 °C is marked “A”)”. Besides, the “TECC (AUC, 10 μM)” value at CFTR is recorded as “B (a value between 12-20 is marked “B”)”.
`Cn1nc2nc1-c1cc(ccc1F)C(=O)c1c(F)cc3[nH]ccc3c1CCS(=O)(=O)CC(C)(C)CCCC2(C)c1cccc(CCC(=O)O)c1` (single isomer, unassigned) [Compound 31C, 3-[3-[22,28-difluoro-3,6,10,10-tetramethyl-12,12,24-trioxo-12lambda6-thia-3,4,19,30-tetrazapentacyclo[23.3.1.12,5.015,23.016,20]triaconta-1(29),2(30),4,15,17,20,22,25,27-nonaen-6-yl]phenyl]propanoic Acid]: the “DSLS 3D (100 μM ΔT)” value on NBD1 is “C (a value greater than 10 °C and less than or equal to 25 °C is marked “C”)”. Also, the “TECC (AUC, 10 μM)” value at CFTR is “C (a value between 20 and 80 is marked “C”)”.
`Cn1nc2nc1-c1cc(ccc1F)C(=O)c1c(F)cc3[nH]ccc3c1CCS(=O)(=O)CC(C)(C)CCCC2(C)c1cccc(CCC(=O)O)c1` (single isomer, unassigned) [Compound 31D, 3-[3-[22,28-difluoro-3,6,10,10-tetramethyl-12,12,24-trioxo-12lambda6-thia-3,4,19,30-tetrazapentacyclo[23.3.1.12,5.015,23.016,20]triaconta-1(29),2(30),4,15,17,20,22,25,27-nonaen-6-yl]phenyl]propanoic acid]: the “DSLS 3D (100 μM ΔT)” value on NBD1 is “A (an ΔTagg value less than or equal to 5 °C is marked “A”)”. Also, the “TECC (AUC, 10 μM)” value on CFTR is “C (a value between 20 and 80 is marked “C”)”.
`Cn1nc2nc1-c1cc(ccc1F)Cc1c(F)cc3[nH]ccc3c1CCS(=O)(=O)CC(C)(C)CCCC2(C)c1cccc(CCC(=O)O)c1` (single isomer, unassigned) [Compound 32A, 3-[3-(22,28-Difluoro-3,6,10,10-tetramethyl-12,12-dioxo-12lambda6-thia-3,4,19,30-tetrazapentacyclo[23.3.1.12,5.015,23.016,20]triaconta-1(29),2(30),4,15,17,20,22,25,27-nonaen-6-yl)phenyl]propanoic Acid]: the “DSLS 3D (100 μM ΔT)” value on NBD1 was “A (an ΔTagg value less than or equal to 5 °C is marked “A”)”. Moreover, at CFTR, the “TECC (AUC, 10 μM)” value was “A (a TECC value less than 12 is marked “A”)”.
For `Cn1nc2nc1-c1cc(ccc1F)Cc1c(F)cc3[nH]ccc3c1CCS(=O)(=O)CC(C)(C)CCCC2(C)c1cccc(CCC(=O)O)c1` (single isomer, unassigned) [Compound 32B, 3-[3-(22,28-Difluoro-3,6,10,10-tetramethyl-12,12-dioxo-12lambda6-thia-3,4,19,30-tetrazapentacyclo[23.3.1.12,5.015,23.016,20]triaconta-1(29),2(30),4,15,17,20,22,25,27-nonaen-6-yl)phenyl]propanoic Acid], the “DSLS 3D (100 μM ΔT)” value on NBD1 was “C (a value greater than 10 °C and less than or equal to 25 °C is marked “C”)”. Moreover, the “TECC (AUC, 10 μM)” value at CFTR was “C (a value between 20 and 80 is marked “C”)”.
With `CC(Cc1cccc(C2(C)CCCC(C)(C)CS(=O)(=O)CCc3c(c(F)cc4[nH]ccc34)Sc3ccc(F)c(c3)-c3nc2nn3C)c1)C(=O)O` (single isomer, unassigned) [Compound 33A, 3-[3-(22,28-difluoro-3,6,10,10-tetramethyl-12,12-dioxo-12lambda6,24-dithia-3,4,19,30-tetrazapentacyclo[23.3.1.12,5.015,23.016,20]triaconta-1(29),2(30),4,15,17,20,22,25,27-nonaen-6-yl)phenyl]-2-methyl-propanoic Acid], the “DSLS 3D (100 μM ΔT)” value at NBD1 was “C (a value greater than 10 °C and less than or equal to 25 °C is marked “C”)”. Moreover, the “TECC (AUC, 10 μM)” value at CFTR was “C (a value between 20 and 80 is marked “C”)”.
In the case of `CC(Cc1cccc(C2(C)CCCC(C)(C)CS(=O)(=O)CCc3c(c(F)cc4[nH]ccc34)Sc3ccc(F)c(c3)-c3nc2nn3C)c1)C(=O)O` (single isomer, unassigned) [Compound 33B, 3-[3-(22,28-difluoro-3,6,10,10-tetramethyl-12,12-dioxo-12lambda6,24-dithia-3,4,19,30-tetrazapentacyclo[23.3.1.12,5.015,23.016,20]triaconta-1(29),2(30),4,15,17,20,22,25,27-nonaen-6-yl)phenyl]-2-methyl-propanoic Acid], the “DSLS 3D (100 μM ΔT)” value on NBD1 was “B (a value above 5 °C and less than or equal to 10 °C is marked “B”)”. In addition, the “TECC (AUC, 10 μM)” value at CFTR is given as “A (a TECC value less than 12 is marked “A”)”.
